Common to all, as to assay: isothermal titration calorimetry
One assay concerns the target T1, Gal-7 (Homo sapiens, UniProt P47929).
T1 construct: gene LGALS7; wild type, recombinant from E. coli, lactosylated Sepharose; non-covalent homodimer
In kind it is binding. Particulars: 25 °C. An excerpt:
isothermal titration calorimetry on Gal-7 | TF) antigen CD176) interacts with Gal-7’s CRD (Table S15, Fig. S11) | The data obtained with Lac (Table S14) corroborated the conclusions on activity

Another assay deals with T2, Gal-1–Gal-7.
T2 construct: gene LGALS1; direct fusion, Gal-1 CRD N-terminal, Gal-7 CRD C-terminal; one polypeptide; recombinant from E. coli
In kind it is binding, Homo sapiens. Particulars: 25 °C, pH 7.2, 20 mM phosphate, 10 mM NaCl, 10 mM beta-mercaptoethanol; one-set-of-sites, n fitted. An excerpt: isothermal titration calorimetry on Gal-1–Gal-7

In another assay the target is T3, Gal-3–8S–Gal-7.
T3 construct: gene LGALS3; one polypeptide; recombinant from E. coli
In kind it is binding, Homo sapiens. The following applies: 25 °C, pH 7.2, 20 mM phosphate, 10 mM NaCl, 10 mM beta-mercaptoethanol; one-set-of-sites, n fitted. An excerpt:
isothermal titration calorimetry on Gal-3–8S–Gal-7

The target of a further assay is T4, Gal-7–Gal-3.
T4 construct: gene LGALS7; one polypeptide; recombinant from E. coli
Format: binding, Homo sapiens. Particulars: 25 °C, pH 7.2, 20 mM phosphate, 10 mM NaCl, 10 mM beta-mercaptoethanol; one-set-of-sites, n fitted. An excerpt:
isothermal titration calorimetry on Gal-7–Gal-3

In another assay the target is T5, Gal-7–8S–Gal-3.
T5 construct: gene LGALS7; one polypeptide; recombinant from E. coli
Format: binding, Homo sapiens. The following applies: 25 °C, pH 7.2, 20 mM phosphate, 10 mM NaCl, 10 mM beta-mercaptoethanol; one-set-of-sites, n fitted; LacNAc 2 mM. An excerpt:
isothermal titration calorimetry on Gal-7–8S–Gal-3

The target of the next assay is T6, Gal-7–Gal-1.
T6 construct: gene LGALS7; direct fusion, Gal-7 CRD N-terminal, Gal-1 CRD C-terminal; one polypeptide; recombinant from E. coli
Format: binding, Homo sapiens. The following applies: 25 °C, pH 7.2, 20 mM phosphate, 10 mM NaCl, 10 mM beta-mercaptoethanol; one-set-of-sites, n fitted. The source says: isothermal titration calorimetry on Gal-7–Gal-1

The next assay has as its target T7, Gal-7–Gal-7 (Homo sapiens, UniProt P47929).
T7 construct: gene LGALS7; two Gal-7 CRDs directly fused in one polypeptide (covalent homodimer, no added residues); recombinant from E. coli
Format: binding. The following applies: 25 °C, pH 7.2, 20 mM phosphate, 10 mM NaCl, 10 mM beta-mercaptoethanol; one-set-of-sites, n fitted; LacNAc 10 mM. An excerpt:
isothermal titration calorimetry on Gal-7–Gal-7

The next assay addresses T8, Gal-3–Gal-7.
T8 construct: gene LGALS3; one polypeptide; recombinant from E. coli
In kind it is binding, Homo sapiens. Particulars: 25 °C, pH 7.2, 20 mM phosphate, 10 mM NaCl, 10 mM beta-mercaptoethanol; one-set-of-sites, n fitted. An excerpt:
isothermal titration calorimetry on Gal-3–Gal-7

The target of a further assay is T9, Gal-1–8S–Gal-7.
T9 construct: gene LGALS1; Gal-1 CRD N-terminal, 33-amino-acid linker of Gal-8S, Gal-7 CRD C-terminal; one polypeptide; recombinant from E. coli
In kind it is binding, Homo sapiens. The following applies: 25 °C, pH 7.2, 20 mM phosphate, 10 mM NaCl, 10 mM beta-mercaptoethanol; one-set-of-sites, n fitted. An excerpt:
isothermal titration calorimetry on Gal-1–8S–Gal-7

Another assay addresses T10, Gal-7–8S–Gal-7 (Homo sapiens, UniProt P47929).
T10 construct: gene LGALS7; two Gal-7 CRDs in one polypeptide joined by the 33-amino-acid linker of Gal-8S (covalent homodimer); recombinant from E. coli
In kind it is binding. Particulars: 25 °C, pH 7.2, 20 mM phosphate, 10 mM NaCl, 10 mM beta-mercaptoethanol; one-set-of-sites, n fitted. An excerpt:
isothermal titration calorimetry on Gal-7–8S–Gal-7

T1 sequence (P47929 whole entry): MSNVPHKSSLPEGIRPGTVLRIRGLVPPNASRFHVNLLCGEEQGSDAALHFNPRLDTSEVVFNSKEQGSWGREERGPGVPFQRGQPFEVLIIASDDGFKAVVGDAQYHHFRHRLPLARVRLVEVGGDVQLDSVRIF
T10 sequence (P47929 whole entry): as above
T7 sequence (P47929 whole entry, the tested form may be a part): as the sequence (P47929 whole entry) above

The Kd is the concentration at which binding is half-saturated. Higher therefore signals a looser complex. As for `OC[C@H]1O[C@@H](O[C@H]2[C@H](O)[C@@H](O)C(O)O[C@@H]2CO)[C@H](O)[C@@H](O)[C@H]1O` (stereo partly drawn) [Lac], the dissociation constant (Kd) on Gal-7 (pH 7.2) was determined as 323 ± 5.7 µM.
For `CC(=O)N[C@H]1C(O)O[C@H](CO)[C@@H](O[C@@H]2O[C@H](CO)[C@H](O)[C@H](O)[C@H]2O)[C@@H]1O` (stereo partly drawn) [LacNAc], the Kd on Gal-1–Gal-7 was found to be 175 ± 2.11 µM; on Gal-3–8S–Gal-7, 68.6 ± 6.56 µM; on Gal-7–Gal-3 it was 86.5 ± 5.75 µM; on Gal-7–8S–Gal-3, 32.5 ± 0.81 µM; at Gal-7–Gal-1, 103 ± 6.11 µM; at Gal-7–Gal-7 it was 261 ± 6.21 µM. The dissociation constant Kd on Gal-3–Gal-7 came to 96.2 ± 2.1 µM; at Gal-7 (pH 7.2, 20 mM phosphate, 10 mM NaCl, 10 mM beta-mercaptoethanol, one-set-of-sites, n fitted) it was 316 ± 5.88 µM; on Gal-1–8S–Gal-7, 162 ± 3.79 µM; on Gal-7–8S–Gal-7 it was 287 ± 9.55 µM.
Compound `CC(=O)N[C@H]1C(O)O[C@H](CO)[C@H](O)[C@@H]1O[C@@H]1O[C@H](CO)[C@H](O)[C@H](O)[C@H]1O` (stereo partly drawn) [core 1 mucin-type O-glycan disaccharide] came in with an equilibrium dissociation constant (Kd) at Gal-7 (pH 7.2) of 1250 ± 126 µM.

The values above are taken from publication PMC8460509, “Imitating evolution’s tinkering by protein engineering reveals extension of human galectin-7 activity” (Histochemistry and cell biology, 2021).
